The NIST ThermoML archive (doi:10.1016/j.jct.2018.03.031)
Several values for one entry are separate records, joined by “and”; a condition that tells them apart may be missing. Equal values may be shown once. Numbers after ± are expanded uncertainties.

Tests used:
[1] = DSC
[2] = Molar enthalpy of transition or fusion; conditions: DSC
[3] = molar heat capacity at constant pressure; conditions: 101.33 kPa, Large sample (1 g) DSC

| SMILES | molar heat capacity at constant pressure ([3]; 283.15 K, Liquid) | molar heat capacity at constant pressure ([3]; 288.15 K, Liquid) | molar heat capacity at constant pressure ([3]; 293.15 K, Liquid) | molar heat capacity at constant pressure ([3]; 298.15 K, Liquid) | molar heat capacity at constant pressure ([3]; 303.15 K, Liquid) | molar heat capacity at constant pressure ([3]; 308.15 K, Liquid) | molar heat capacity at constant pressure ([3]; 313.15 K, Liquid) | molar heat capacity at constant pressure ([3]; 318.15 K, Liquid) | molar heat capacity at constant pressure ([3]; 323.15 K, Liquid) | molar heat capacity at constant pressure ([3]; 328.15 K, Liquid) | molar heat capacity at constant pressure ([3]; 333.15 K, Liquid) | molar heat capacity at constant pressure ([3]; 338.15 K, Liquid) | other results |
| --- | --- | --- | --- | --- | --- | --- | --- | --- | --- | --- | --- | --- | --- |
| CCCC[P+](CCCC)(CCCC)CCCC.FC(F)(F)C(F)(F)[P-](F)(F)(F)(C(F)(F)C(F)(F)F)C(F)(F)C(F)(F)F |  |  |  |  |  |  |  |  |  |  |  |  | Triple point temperature ([1]; Crystal 1): 342.15 ± 1 K; Triple point temperature ([1]; Crystal 2): 313.75 ± 0.8 K and 313.15 ± 1 K; Molar enthalpy of transition or fusion ([2]; Crystal 1): 1.86 ± 0.0717 kcal/mol; Molar enthalpy of transition or fusion ([2]; Crystal 2): 2.13 kcal/mol and 2.08 kcal/mol; molar heat capacity at constant pressure ([3]; 283.15 K, Crystal 2): 971 ± 24 J/K/mol; molar heat capacity at constant pressure ([3]; 288.15 K, Crystal 2): 981.2 ± 24 J/K/mol; molar heat capacity at constant pressure ([3]; 293.15 K, Crystal 2): 990.3 ± 24 J/K/mol; molar heat capacity at constant pressure ([3]; 298.15 K, Crystal 2): 1003.2 ± 25 J/K/mol; molar heat capacity at constant pressure ([3]; 303.15 K, Crystal 2): 1018.4 ± 25 J/K/mol; molar heat capacity at constant pressure ([3]; 323.15 K, Crystal 1): 1029.4 ± 25 J/K/mol; molar heat capacity at constant pressure ([3]; 328.15 K, Crystal 1): 1049.8 ± 26 J/K/mol |
| CCn1cc[n+](C)c1.O=S(=O)([N-]S(=O)(=O)C(F)(F)F)C(F)(F)F | 521 ± 13 J/K/mol | 522.6 ± 13 J/K/mol | 524.2 ± 13 J/K/mol | 526.4 ± 13 J/K/mol | 528.5 ± 13 J/K/mol | 530.7 ± 13 J/K/mol | 532.5 ± 13 J/K/mol | 534.8 ± 13 J/K/mol | 536.3 ± 13 J/K/mol | 538.9 ± 13 J/K/mol | 540.2 ± 13 J/K/mol | 541.7 ± 13 J/K/mol |  |
| COCC[N+]1(C)CCCC1.O=S(=O)([N-]S(=O)(=O)C(F)(F)F)C(F)(F)F | 575.3 ± 14 J/K/mol | 578.9 ± 14 J/K/mol | 580.3 ± 14 J/K/mol | 582.3 ± 14 J/K/mol | 584.7 ± 14 J/K/mol | 586.5 ± 14 J/K/mol | 588.9 ± 14 J/K/mol | 591.3 ± 14 J/K/mol | 593.2 ± 14 J/K/mol | 596.3 ± 15 J/K/mol | 597.5 ± 15 J/K/mol | 602.6 ± 15 J/K/mol |  |
| CCCC[N+]1(C)CCCC1.O=S(=O)([O-])C(F)(F)F [1-butyl-1-methylpyrrolidinium trifluoromethanesulfonate] | 436.5 ± 11 J/K/mol | 438.3 ± 11 J/K/mol | 439.9 ± 11 J/K/mol | 442.7 ± 11 J/K/mol | 445.3 ± 11 J/K/mol | 447.8 ± 11 J/K/mol | 452.2 ± 11 J/K/mol | 455.3 ± 11 J/K/mol | 457.2 ± 11 J/K/mol | 460 ± 11 J/K/mol | 461.9 ± 11 J/K/mol | 464.6 ± 11 J/K/mol |  |
| CCCCn1cc[n+](C)c1C.O=S(=O)([O-])C(F)(F)F [1-butyl-2,3-dimethylimidazolium trifluoromethanesulfonate] |  |  |  |  |  |  |  |  | 472.2 ± 12 J/K/mol | 474.3 ± 12 J/K/mol | 475.2 ± 12 J/K/mol | 478.7 ± 12 J/K/mol | Triple point temperature ([1]; Crystal 1): 315.25 ± 0.8 K and 316.15 ± 1 K; Triple point temperature ([1]; Crystal 2): 307.45 ± 0.8 K and 306.15 ± 1 K; Molar enthalpy of transition or fusion ([2]; Crystal 1): 3.59 kcal/mol; Molar enthalpy of transition or fusion ([2]; Crystal 2): 1.29 kcal/mol and 1.7 kcal/mol; molar heat capacity at constant pressure ([3]; 283.15 K, Crystal 2): 381.1 ± 9.4 J/K/mol; molar heat capacity at constant pressure ([3]; 288.15 K, Crystal 2): 394.6 ± 9.7 J/K/mol; molar heat capacity at constant pressure ([3]; 293.15 K, Crystal 2): 407.1 ± 10 J/K/mol |
| CCCCCCOS(=O)(=O)[O-].CC[n+]1ccn(C)c1 [3-ethyl-1-methyl-1H-imidazolium hexyl sulfate] | 505.2 ± 12 J/K/mol | 508.3 ± 12 J/K/mol | 509.1 ± 12 J/K/mol | 513.9 ± 13 J/K/mol | 517.4 ± 13 J/K/mol | 520.2 ± 13 J/K/mol | 523.1 ± 13 J/K/mol | 526 ± 13 J/K/mol | 528.4 ± 13 J/K/mol | 531.5 ± 13 J/K/mol | 534 ± 13 J/K/mol | 537.6 ± 13 J/K/mol |  |
| CCCCO [butan-1-ol] | 168 ± 4.1 J/K/mol | 171 ± 4.2 J/K/mol | 174.1 ± 4.3 J/K/mol | 177.9 ± 4.4 J/K/mol | 181.1 ± 4.4 J/K/mol | 184.5 ± 4.5 J/K/mol | 187.8 ± 4.6 J/K/mol | 191.4 ± 4.7 J/K/mol | 196 ± 4.8 J/K/mol | 200.1 ± 4.9 J/K/mol | 204.1 ± 5 J/K/mol | 208.4 ± 5.1 J/K/mol |  |
